{"source": "patent US20130217646A1", "about": "“COMBINATION OF ALOVUDINE AND ZIDOVUDINE IN A MOLAR RATIO OF 1:100 TO 1:350” (MEDIVIR AB, priority 2006, published 2013)", "system": "MT4 cell line", "conditions": "human, 14 days", "method": "Several suitable cell lines supporting HIV growth are readily available including lines include those supporting HIV growth including the CEM×174 cell line derived from Swedish Institute for Infectious Disease Control (SMI) Sweden, MT-4 (commercially available) and Hep G2 (commercially available).\nIn short, 100 ul cells are seeded in a 96-well plate at a concentration of 1×10^4 cells/ml, at exponential growth were cultured in RPMI 1640 medium (from Gibco) supplemented with 10% heat-inactivated fetal bovine serum (from Gibco) and Penicillin-Streptomycin (from Gibco). The medium is changed every 3 or 4 days, and cells are subcultured once a week at a dilution of 1:10. All cultures are routinely checked for Mycoplasma infection and grown at 37° C. in a humidified 5% CO2 atmosphere.\nAll drugs tested were first dissolved at 10 mM in dimethyl sulfoxide (DMSO) before further dilution to the appropriate concentration in the culture medium. The analysis of mitochondrial DNA was performed by using Taqman technology as previously reported (Zhang, H et al. Mol. Pharmacol 1994 46:1063-1069), with modifications, and is briefly described below.\nThe cells are treated for a series of durations with the test drugs, such as alovudine, fosalvudine, zidovudine, abacavir etc or various combinations of alovudine/fosalvudine and zidovudine/abacavir. The various ratios indicated in the respective Tables. After 14 days of drug exposure, cells are collected. Total cellular DNA was prepared using the QiAamp DNA blood Mini kit (QIAGEN, Chatsworth, Calif.), following the supplier's instructions for the Qiagene Blood&Body Fluid Spin Protocol, and subject to DNA amplification.\nThe probes of mitochondrial DNA Taqman and human nuclear DNA were prepared from Applied Biosystems, which employs an internal quenched DNA probe utilizing fluorescence resonance energy transfer (FRET) to generate a spectroscopic response due to 5′->3′ exonuclease activity of Taq DNA polymerase during DNA amplification. […] It is a fully integrated system for real-time detection of PCR using ABI PRISM 7700 and TaqMan reagents for the fluorogenic 5′ nuclease assay.\nThe cell growth was controlled by cellular nuclear DNA ([…] ribosomal DNA).\nThe above described assay was performed in the MT4 cell line derived from a T lymphocyte.", "note": "Where two headings read alike, the source gives them in different places."}
{"smiles": "Nc1nc(NC2CC2)c2ncn([C@H]3C=C[C@@H](CO)C3)c2n1", "note": "[abacavir]", "values": [{"measurement": "Inhibition of mitochondrial DNA, %", "setting": "1 uM", "result": 18, "unit": "%"}, {"measurement": "Mean qty mt DNA", "setting": "1 uM", "result": 756544}, {"measurement": "Inhibition of mitochondrial DNA, %", "setting": "20 uM", "result": 51, "unit": "%"}, {"measurement": "Mean qty mt DNA", "setting": "20 uM", "result": 506181}]}
{"smiles": "Cc1cn([C@H]2C[C@H](F)[C@@H](CO)O2)c(=O)[nH]c1=O", "note": "[alovudine, 2′,3′-dideoxy-3′-fluorothymidine]", "values": [{"measurement": "% Reduction mt/n DNA", "setting": "0.1 uM", "result": 13, "unit": "%"}, {"measurement": "% reduction mt DNA", "setting": "0.1 uM", "result": 44, "unit": "%"}, {"measurement": "% reduction n DNA", "setting": "0.1 uM", "result": 35, "unit": "%"}, {"measurement": "Inhibition of mitochondrial DNA %", "setting": "0.1 uM", "result": 70, "unit": "%"}, {"measurement": "Inhibition of mitochondrial DNA, %", "setting": "0.1 uM", "result": 40, "unit": "%"}, {"measurement": "Mean qty mt DNA", "setting": "0.1 uM", "result": 549900}, {"measurement": "Ratio Mitochondrial: Nuclear DNA", "setting": "0.1 uM", "result": 0.45}, {"measurement": "Relative no. copies mt DNA", "setting": "0.1 uM", "result": 434709}, {"measurement": "Relative no. copies n DNA", "setting": "0.1 uM", "result": 956331}, {"measurement": "Inhibition of mitochondrial DNA, %", "setting": "0.2 uM", "result": 82, "unit": "%"}, {"measurement": "Mean qty mt DNA", "setting": "0.2 uM", "result": 187574}, {"measurement": "% Reduction mt/n DNA", "setting": "0.3 uM", "result": 59, "unit": "%"}, {"measurement": "% reduction mt DNA", "setting": "0.3 uM", "result": 68, "unit": "%"}, {"measurement": "% reduction n DNA", "setting": "0.3 uM", "result": 22, "unit": "%"}, {"measurement": "Inhibition of mitochondrial DNA %", "setting": "0.3 uM", "result": 95, "unit": "%"}, {"measurement": "Ratio Mitochondrial: Nuclear DNA", "setting": "0.3 uM", "result": 0.21}, {"measurement": "Relative no. copies mt DNA", "setting": "0.3 uM", "result": 247481}, {"measurement": "Relative no. copies n DNA", "setting": "0.3 uM", "result": 1160000}, {"measurement": "% Reduction mt/n DNA", "setting": "0.6 uM", "result": 89, "unit": "%"}, {"measurement": "% reduction mt DNA", "setting": "0.6 uM", "result": 88, "unit": "%"}, {"measurement": "% reduction n DNA", "setting": "0.6 uM", "result": 0, "unit": "%"}, {"measurement": "Ratio Mitochondrial: Nuclear DNA", "setting": "0.6 uM", "result": 0.06}, {"measurement": "Relative no. copies mt DNA", "setting": "0.6 uM", "result": 96998}, {"measurement": "Relative no. copies n DNA", "setting": "0.6 uM", "result": 1740000}, {"measurement": "Inhibition of mitochondrial DNA %", "setting": "1 uM", "result": 100, "unit": "%"}]}
{"smiles": "Cc1cn([C@H]2C[C@H](N=[N+]=[N-])[C@@H](CO)O2)c(=O)[nH]c1=O", "note": "[zidovudine, 2′3′-dideoxy-3′-azido-thymidine]", "values": [{"measurement": "Inhibition of mitochondrial DNA %", "setting": "1 uM", "result": 0, "unit": "%"}, {"measurement": "Inhibition of mitochondrial DNA %", "setting": "3 uM", "result": 0, "unit": "%"}, {"measurement": "% Reduction mt/n DNA", "setting": "10 uM", "result": 0, "unit": "%"}, {"measurement": "% reduction mt DNA", "setting": "10 uM", "result": 0, "unit": "%"}, {"measurement": "% reduction n DNA", "setting": "10 uM", "result": 40, "unit": "%"}, {"measurement": "Inhibition of mitochondrial DNA %", "setting": "10 uM", "result": 0, "unit": "%"}, {"measurement": "Ratio Mitochondrial: Nuclear DNA", "setting": "10 uM", "result": 0.96}, {"measurement": "Relative no. copies mt DNA", "setting": "10 uM", "result": 856782}, {"measurement": "Relative no. copies n DNA", "setting": "10 uM", "result": 891446}, {"measurement": "% Reduction mt/n DNA", "setting": "30 uM", "result": 0, "unit": "%"}, {"measurement": "% reduction mt DNA", "setting": "30 uM", "result": 0, "unit": "%"}, {"measurement": "% reduction n DNA", "setting": "30 uM", "result": 43, "unit": "%"}, {"measurement": "Inhibition of mitochondrial DNA, %", "setting": "30 uM", "result": 0, "unit": "%"}, {"measurement": "Mean qty (mitochondrial DNA)", "setting": "30 uM", "result": 1410000}, {"measurement": "Ratio Mitochondrial: Nuclear DNA", "setting": "30 uM", "result": 1.19}, {"measurement": "Relative no. copies mt DNA", "setting": "30 uM", "result": 993321}, {"measurement": "Relative no. copies n DNA", "setting": "30 uM", "result": 836935}, {"measurement": "% Reduction mt/n DNA", "setting": "60 uM", "result": 0, "unit": "%"}, {"measurement": "% reduction mt DNA", "setting": "60 uM", "result": 4, "unit": "%"}, {"measurement": "% reduction n DNA", "setting": "60 uM", "result": 40, "unit": "%"}, {"measurement": "Ratio Mitochondrial: Nuclear DNA", "setting": "60 uM", "result": 0.84}, {"measurement": "Relative no. copies mt DNA", "setting": "60 uM", "result": 748730}, {"measurement": "Relative no. copies n DNA", "setting": "60 uM", "result": 890663}]}
